Laboratory results reported in patent publication US10201552B2, “Method of increasing the bioavailability of an HIV drug” (HOWARD UNIVERSITY, priority 2013, dated 2019).

Assays:
[1] = administered orally as disoproxil ester prodrug; cited from earlier work
[2] = test system: Unactivated Human T-Cells; assay: Uptake of radio labeled Tenofovir in human T-cells in presence and absence of ABC efflux pump inhibitors; format: cell-based; conditions: with specific MRP, BCRP and Pgp inhibitors vs without
Protocol: ABC efflux pump inhibitors. Briefly, human T-cells in the culture media (1 million/mL) were transferred to 15 mL centrifuge tubes. Radio labeled Tenofovir was added to the control tube and radio labeled Tenofovir along with defined concentrations of efflux pump inhibitors were added to the treatment tubes. The tubes were incubated for 15 minutes under culture conditions (37° C., 5% CO2/95% relative humidity). Following incubation, the tubes were centrifuged at 2000 rpm for 15 min and the supernatant is discarded. Ice cold stop solution (210 mM KCl, 2 mM HEPES [pH 7.4]) was added to stop the reaction. The cells were resuspended in stop solution to ensure washing and centrifuged at 2000 rpm for 15 min. The treatment with stop solution, washing and centrifugation is repeated to ensure through washing. 1 mL lysis solution (0.3 M NaOH, 0.1% Triton X-100) was added to the cell pellet and samples and incubated overnight to ensure complete cell lysis. Intracellular concentrations were analyzed by Beckman LS 6500 automated Scintillation Counter.

For C[C@H](Cn1cnc2c(N)ncnc21)OCP(=O)(O)O [Tenofovir], the bioavailability [1] is given as no less than 20% and the “intracellular accumulation of Tenofovir” value [2] is given as “significant increase”.
